Test results: patent US12590099B2, “Inhibitors of histone deacetylase useful for the treatment or prevention of HIV infection” (Merck Sharp & Dohme LLC, priority 2018, dated 2026)
Read-outs that look alike come from different tables or passages of the source.

Experiments:
HDAC6 = target: T1, HDAC6 (Homo sapiens, UniProt Q9UBN7); test: Human HDAC enzyme inhibitor Fluor-de-Lys assay, HDAC6; type: biochemical; details: HDAC6, Fluor-de-Lys assay
T1 sequence (Q9UBN7 1-1215): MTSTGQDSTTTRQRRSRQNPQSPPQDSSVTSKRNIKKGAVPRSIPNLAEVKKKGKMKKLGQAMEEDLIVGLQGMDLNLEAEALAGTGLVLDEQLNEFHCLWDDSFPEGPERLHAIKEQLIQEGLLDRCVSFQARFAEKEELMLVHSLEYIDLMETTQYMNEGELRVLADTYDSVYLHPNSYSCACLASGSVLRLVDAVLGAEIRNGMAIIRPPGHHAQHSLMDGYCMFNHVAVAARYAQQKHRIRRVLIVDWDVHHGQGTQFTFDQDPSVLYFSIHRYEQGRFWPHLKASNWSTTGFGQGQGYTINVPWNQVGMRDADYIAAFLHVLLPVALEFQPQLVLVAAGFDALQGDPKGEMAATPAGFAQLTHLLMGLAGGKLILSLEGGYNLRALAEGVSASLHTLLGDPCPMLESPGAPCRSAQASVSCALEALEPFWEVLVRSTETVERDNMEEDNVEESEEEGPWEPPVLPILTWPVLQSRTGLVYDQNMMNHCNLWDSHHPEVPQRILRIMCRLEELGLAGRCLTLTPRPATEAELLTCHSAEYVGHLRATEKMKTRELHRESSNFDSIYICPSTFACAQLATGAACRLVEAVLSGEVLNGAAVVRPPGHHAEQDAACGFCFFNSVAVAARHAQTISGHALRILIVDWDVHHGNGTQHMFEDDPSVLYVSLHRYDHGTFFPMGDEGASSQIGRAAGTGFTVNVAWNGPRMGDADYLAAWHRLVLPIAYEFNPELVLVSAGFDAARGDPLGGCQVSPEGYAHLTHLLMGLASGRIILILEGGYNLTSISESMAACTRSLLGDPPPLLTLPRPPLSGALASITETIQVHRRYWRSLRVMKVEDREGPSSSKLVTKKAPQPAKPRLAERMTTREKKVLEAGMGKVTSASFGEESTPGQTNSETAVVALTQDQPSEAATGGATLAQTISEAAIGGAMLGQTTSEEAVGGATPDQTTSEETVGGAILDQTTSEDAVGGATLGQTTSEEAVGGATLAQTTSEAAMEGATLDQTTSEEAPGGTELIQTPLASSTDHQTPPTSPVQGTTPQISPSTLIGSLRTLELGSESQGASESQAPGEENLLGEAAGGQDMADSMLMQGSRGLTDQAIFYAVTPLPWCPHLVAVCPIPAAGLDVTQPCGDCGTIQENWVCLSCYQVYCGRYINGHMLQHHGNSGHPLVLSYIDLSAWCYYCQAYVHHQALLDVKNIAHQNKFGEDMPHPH
Procedure: (§1) Human HDAC Enzyme Inhibitor Fluor-De-Lys Assay
(§2) Recombinant human HDAC8 (BML-SE145-0100) and HDAC10 (BML-SE559-0050) enzymes, HDAC substrates BML-KI104 and BML-KI178, and HDAC developer solutions BML-KI105 and BML-KI176 were purchased from Enzo Life Sciences. […] HDAC inhibitor suberoylanilide hydroxamic acid (SAHA) was obtained from Indofine and trichostatin A (TSA) was obtained from Sigma-Aldrich.
(§3) The histone deacetylase activities of HDAC1, HDAC2, HDAC3, HDAC6, and HDAC8 were measured in modified FLUOR DE LYS assays in 384-well format. In this assay, HDAC enzymes are initially incubated with an ε-acetyl (or -trifluoroacetyl)-L-lysine-containing substrate with a C-terminal amide having aminomethylcoumarin as the amine component. HDACs cleave the ε-acetyl group, rendering the resulting product susceptible to AMC cleavage by trypsin. The released AMC is then detected by its fluorescence.
(§4) The HDAC3/SMRT assay employed buffer B, consisting of 20 mM HEPES, pH 8.0, 1 mM MgCl2, 50 mM NaCl, 2.7 mM KCl, 0.05% BSA, 0.005% Tween 20, and 10 μM IP4. […] The HDAC8 assay employed buffer D, consisting of 20 mM HEPES, pH 8.0, 1 mM MgCl2, 100 mM NaCl, 20 mM KCl, 0.10% n-octyl-β-D-glucoside (Anatrace) and 0.05% BSA. All steps were performed at room temperature (23° C.). The assay was performed by pre-incubating serial dilutions of test compounds with the target HDAC prior to initiation with substrate. Each compound was titrated in a 10-point dose response, using a 1:3 fold dilution scheme, with 0.15 ul of solution added by ECH0555 to the plate, followed by the addition of 20 μl of the appropriate HDAC isoform diluted in appropriate assay buffer. […] Final conditions used for each assay were: 1. HDAC 1, 0.3 nM total enzyme, 20 μM substrate BML-KI104; 2. […] HDAC 3/SMRT, 0.3 nM total enzyme, 20 μM substrate BML-KI104; 4. […] The reactions were stopped and developed by addition of 30 ul of HDAC developer solution containing a saturating level of HDAC inhibitor as follows: 1.

KARN cells (Jurkat 2C4) = test: cells; type: cell-based; details: luciferase induction, 100% = 2 μM SAHA
Procedure: KARN cells (Jurkat 2C4) were licensed from the laboratory of Dr. John Karn, Case Western Reserve University, School of Medicine. […] An atmosphere of 5% CO2 and 90% humidity was used for all culture work.
Day 1: After the 3-4 day growth period, the cells were transferred from the T175 flask to a 50 ml conical tube and gently pelleted at 1000 rpm for 5 minutes. […] These flasks were returned to the incubator.
Day 2: Cell Preparation: The next day, the cells were transferred from each T175 flask to an individual 50 ml conical tube and gently pelleted at 1000 rpm for 5 minutes. The cells were gently resuspended in assay media (30 ml) and pelleted again. […] The cells were counted using the ViCell (Beckman Coulter) and diluted as necessary. […] The plates were covered and returned to the incubator prior to compound addition.
The reference compounds, DMSO and SAHA were then added to the compound plate. […] The final high concentration for SAHA and the test compounds in the assays was 40 μM. The final DMSO concentration in all wells was 0.4%. The minimal induction reference compound used was DMSO and the maximal induction reference compound used was SAHA (2 μM final concentration in the assay).
Day 3: The luciferase detection reagent was prepared by transferring the contents of one bottle of Steady-Glo buffer to one bottle of Steady-Glo aubstrate (Steady-Glo Luciferase Assay System, Promega, catalog number E2520), followed by gently mixing until the substrate was thoroughly dissolved and the solution was equilibrated to room temperature. […] The Steady-Glo Reagent was added to the plates (30 μl/well), which were then covered with a black lid and incubated for 10 minutes at room temperature. The plates were then read for luminescence on an Envision (Perkin Elmer) using the ultrasensitive mode (US LUM), […] and 384-well aperture. Luminescence counts in the DMSO reference wells were considered as 0% induction, while those in the 2 μM SAHA reference wells were considered as 100% induction. Dose response curves were plotted as test compound concentration (X-axis) vs. percent activation (Y-axis) using a 4-parameter fit based on the Levenberg-Marquardt algorithm.

Recombinant human HDAC8 = target: T2, Recombinant human HDAC8 (Homo sapiens, UniProt Q9BY41); test: Human HDAC enzyme inhibitor Fluor-de-Lys assay, HDAC8; type: biochemical; details: recombinant human HDAC8, Fluor-de-Lys assay
T2 construct: purchased Enzo Life Sciences BML-SE145-0100
T2 sequence (Q9BY41 1-377): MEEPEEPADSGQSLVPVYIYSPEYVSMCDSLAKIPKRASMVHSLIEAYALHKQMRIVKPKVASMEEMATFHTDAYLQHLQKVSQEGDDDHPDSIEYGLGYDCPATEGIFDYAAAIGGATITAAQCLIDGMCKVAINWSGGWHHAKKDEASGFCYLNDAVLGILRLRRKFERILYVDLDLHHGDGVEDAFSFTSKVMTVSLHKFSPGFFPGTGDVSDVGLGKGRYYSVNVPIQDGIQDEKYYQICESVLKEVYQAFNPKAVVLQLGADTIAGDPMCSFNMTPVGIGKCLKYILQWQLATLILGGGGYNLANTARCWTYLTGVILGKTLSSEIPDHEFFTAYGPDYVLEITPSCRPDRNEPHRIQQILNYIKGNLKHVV
Procedure: as §1, §2, §3, §4

[1] = read-out: Karn EC50 (nM) 0.1% NHS, 0.1% normal human serum
[2] = read-out: Karn EC50 (nM) 5% NHS, 5% normal human serum
[3] = Homo sapiens, Jurkat, read-out: Karn EC50 (nM) 0.1% NHS, 0.1% normal human serum
[4] = Homo sapiens, Jurkat, read-out: Karn EC50 (nM) 5% NHS, 5% normal human serum

SMILES | IC50 (HDAC6) [nM] | EC50 (KARN cells (Jurkat 2C4); [1]) [nM] | EC50 (KARN cells (Jurkat 2C4); [2]) [nM] | IC50 (Recombinant human HDAC8) [nM] | EC50 (KARN cells (Jurkat 2C4); [3]) [nM] | EC50 (KARN cells (Jurkat 2C4); [4]) [nM]
CCC(=O)CCCCC[C@H](NC(=O)[C@H]1CC12CCCN(C)C2)c1ncc(-c2cc3ccccc3nc2OC)[nH]1 (some centres unmarked) [Compound 287] | 351 | 81 | 325 | 2780 | – | –
CCC(=O)CCCCC[C@H](NC(=O)[C@H]1CC12CCN(CC)CC2)c1ncc(-c2cc3ccccc3nc2O)[nH]1 [Compound 291] | 741 | – | – | > 15000 | 192 | 295
CCC(=O)CCCCC[C@H](NC(=O)[C@@H]1CC12CCN(CC)CC2)c1ncc(-c2cc3ccccc3[nH]c2=O)[nH]1 [Compound 292] | > 1500 | – | – | > 4500 | 992 | 1380
CCC(=O)CCCCC[C@H](NC(=O)[C@H]1CC12CCN(Cc1ccccc1)CC2)c1ncc(-c2cc3ccccc3nc2OC)[nH]1 [Compound 293] | 727 | – | – | 8200 | 75 | 175
CCC(=O)CCCCC[C@H](NC(=O)[C@H]1CC12CCN(Cc1cccnc1)CC2)c1ncc(-c2cc3ccccc3nc2OC)[nH]1 [Compound 294] | 415 | – | – | 4920 | 63 | 277
CCC(=O)CCCCC[C@H](NC(=O)[C@H]1CC12CCN(Cc1ccc(OC)cc1)CC2)c1ncc(-c2cc3ccccc3nc2OC)[nH]1 [Compound 295] | 973 | – | – | 3230 | 113 | 180
CCC(=O)CCCCC[C@H](NC(=O)C1CC2(C1)CN(C)C2)c1ncc(-c2cc3ccccc3nc2OC)[nH]1 [Compound 311] | 385 | – | – | 2660 | 131 | 841
CCC(=O)CCCCC[C@H](NC(=O)C1CC12CN(C)C2)c1ncc(-c2cc3ccccc3nc2OC)[nH]1 (some centres unmarked) [Compound 312] | 299 | – | – | 2020 | 155 | 633
CCC(=O)CCCCC[C@H](NC(=O)C1CC12CCN(C)CC2)c1ncc(-c2cc3ccccc3nc2OC)[nH]1 (stereo partly drawn) [Compound 313, N—((S)-1-(5-(2-methoxyquinolin-3-yl)-1H-imidazol-2-yl)-7-oxononyl)-6-methyl-6-azaspiro[2.5]octane-1-carboxamide] | 246 | – | – | 3020 | 57 | 272
CCC(=O)CCCCC[C@H](NC(=O)C1CCC2(CC1)CN(C)C2)c1ncc(-c2cc3ccccc3nc2OC)[nH]1 [Compound 315] | 459 | – | – | 1950 | 86 | 688
CCC(=O)CCCCC[C@H](NC(=O)C1CCC2(CC1)CN(C)C2)c1ncc(-c2cc3ccccc3nc2OC)[nH]1 [Compound 316] | 387 | 151 | 660 | 1680 | – | –
CCC(=O)CCCCC[C@H](NC(=O)[C@@H]1CC12CN(C)C2)c1ncc(-c2cc3ccccc3nc2OC)[nH]1 [Compound 322] | 219 | – | – | 2490 | 74 | 287
CCC(=O)CCCCC[C@H](NC(=O)[C@H]1CC12CN(C)C2)c1ncc(-c2cc3ccccc3nc2OC)[nH]1 [Compound 323] | 376 | – | – | 2300 | 284 | 1290
CCC(=O)CCCCC[C@H](NC(=O)[C@H]1C[C@@]12CCN(C)C2)c1ncc(-c2cc3ccccc3nc2OC)[nH]1 [Compound 328] | 395 | – | – | 3310 | 73 | 322
CCC(=O)CCCCC[C@H](NC(=O)[C@@H]1C[C@]12CCN(C)C2)c1ncc(-c2cc3ccccc3nc2OC)[nH]1 [Compound 329] | > 150 | – | – | 7040 | 262 | 1140
CCC(=O)CCCCC[C@H](NC(=O)[C@@H]1C[C@@]12CCN(C)C2)c1ncc(-c2cc3ccccc3nc2OC)[nH]1 [Compound 330] | 632 | – | – | 13700 | 309 | 1150
CCCN1CCC2(CC1)C[C@@H]2C(=O)N[C@@H](CCCCCC(=O)CC)c1ncc(-c2cc3ccccc3nc2OC)[nH]1 [Compound 331] | 490 | – | – | 2030 | 154 | 896
